The text below walks through data of patent publication US20100256104A1, “NOVEL AMIDE COMPOUNDS” (ASTRAZENECA R&D, priority 2009, published 2010).

The target of this assay is T1, recombinant human GR (Homo sapiens, UniProt P04150).
T1 construct: purchased Panvera/Invitrogen P2812 (kit P2893)
T1 sequence (P04150 1-777): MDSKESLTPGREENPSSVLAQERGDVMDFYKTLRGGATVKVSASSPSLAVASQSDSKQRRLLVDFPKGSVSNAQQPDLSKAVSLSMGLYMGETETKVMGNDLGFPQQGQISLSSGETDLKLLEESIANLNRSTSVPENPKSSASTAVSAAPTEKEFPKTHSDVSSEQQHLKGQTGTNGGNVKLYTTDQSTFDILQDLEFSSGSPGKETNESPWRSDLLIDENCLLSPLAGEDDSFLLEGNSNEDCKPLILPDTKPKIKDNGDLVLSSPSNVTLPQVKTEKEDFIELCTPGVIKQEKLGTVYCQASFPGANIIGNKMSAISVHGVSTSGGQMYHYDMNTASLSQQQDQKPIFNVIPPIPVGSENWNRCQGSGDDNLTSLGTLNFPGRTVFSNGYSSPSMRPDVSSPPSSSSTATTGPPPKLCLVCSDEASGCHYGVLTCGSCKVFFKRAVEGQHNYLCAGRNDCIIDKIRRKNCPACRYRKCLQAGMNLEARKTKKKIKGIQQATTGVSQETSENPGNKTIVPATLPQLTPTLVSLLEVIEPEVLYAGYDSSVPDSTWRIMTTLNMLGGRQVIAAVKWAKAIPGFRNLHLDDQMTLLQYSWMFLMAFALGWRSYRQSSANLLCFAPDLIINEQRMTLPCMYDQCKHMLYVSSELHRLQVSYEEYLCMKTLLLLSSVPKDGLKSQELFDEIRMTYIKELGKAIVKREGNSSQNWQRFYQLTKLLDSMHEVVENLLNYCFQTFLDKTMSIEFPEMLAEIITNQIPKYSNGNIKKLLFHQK
The experiment in a line: Human Glucocorticoid Receptor (GR) Assay, fluorescence polarization competition with GS Red tracer. The settings on record: 2 hours at room temperature, 100% control 10 μM Dexamethasone, XLfit model 205, read-out: Inhibition of GR binding, IC50. Put shortly:
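Fluorescence polarization competition: recombinant human GR with GS Red tracer, stabilizing peptide and DTT in potassium phosphate/sodium molybdate/EDTA buffer. 2 h in dark at room temperature, read at ex 530/em 590 nm. Controls: DMSO (0%) and 10 μM dexamethasone (100%).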

Broadly, the IC50 is the concentration needed to halve the response being measured.

Turning to `COCC(=O)O[C@]1(C(=O)SCF)CC[C@H]2[C@@H]3C[C@H](C)C4=Cc5c(cnn5-c5cccc(C(=O)NCC(N)=O)c5)C[C@]4(C)[C@H]3[C@@H](O)C[C@@]21C` [Example 38, (1R,3aS,3bS,5S, 10aR,10bS,11S,12aS)-7-{3-[(2-amino-2-oxoethyl)carbamoyl]phenyl}-1-{[(fluoromethyl)sulfanyl]carbonyl}-11-hydroxy-5,10a, 12a-trimethyl-1,2,3,3a,3b,4,5,7,10, 10a,10b,11,12,12a-tetradecahydrocyclo-penta[5,6]naphtho [1,2-f]indazol-1-yl methoxyacetate], the IC50 came out at 8.3 nM.

Turning to `C[C@]12Cc3cnn(-c4cccc(C(=O)NCc5cccnc5)c4)c3C=C1CC[C@@H]1[C@@H]2[C@@H](O)C[C@@]2(C)[C@H]1CC[C@]2(OC(=O)c1cocn1)C(=O)SCF` [Example 39, (1R,3aS,3bS,10aR, 10bS,11S,12aS)-1-{[(fluoromethyl)sulfanyl]carbonyl}-11-hydroxy-10a,12a-dimethyl-7-{3-[(pyridin-3-ylmethyl)carbamoyl]-phenyl}-1,2,3,3a,3b, 4,5,7,10,10a,- 10b,11,12,12a-tetradecahydro-cyclopenta[5,6]naphtho [1,2-f]indazol-1-yl 1,3-oxazole-4-carboxylate], the IC50 worked out at 2.4 nM. The result for `COCC(=O)O[C@]1(C(=O)SCF)CC[C@H]2[C@@H]3CCC4=Cc5c(cnn5-c5cccc(C(=O)N[C@@H]6CCOC6)c5)C[C@]4(C)[C@H]3[C@@H](O)C[C@@]21C` [Example 40, (1R,3aS,3bS,10aR, 10bS,11S,12aS)-1-{[(fluoromethyl)sulfanyl]carbonyl}-11-hydroxy-10a,12a-dimethyl-7-{3-[(3R)-tetrahydrofuran-3-ylcarbamoyl]phenyl}-1,2,3,3a,3b,4,5,7,10, 10a,10b,11,12,12a-tetradecahydrocyclo-penta[5,6]naphtho [1,2-f]indazol-1-yl methoxyacetate] reads 3 nM; that for `CCC(=O)O[C@]1(C(=O)SCF)[C@H](C)C[C@H]2[C@@H]3CCC4=Cc5c(cnn5-c5cccc(C(=O)NCC(N)=O)c5)C[C@]4(C)[C@@]3(F)[C@@H](O)C[C@@]21C` [Example 41, (1R,2R,3aS,3bS, 10aS,10bR,11S,12aS)-7-{3-[(2-amino-2-oxoethyl)carbamoyl]phenyl}-10b-fluoro-1-{[(fluoromethyl)sulfanyl]carbonyl}-11-hydroxy-2,10a,12a-trimethyl-1,2,3,3a,3b,4,5,7,10, 10a,10b,11,12,12a-tetradecahydrocyclo-penta[5,6]naphtho [1,2-f]indazol-1-yl propanoate], 1.2 nM. The same measure for `CCC(=O)O[C@]1(C(=O)SCF)[C@H](C)C[C@H]2[C@@H]3CCC4=Cc5c(cnn5-c5cccc(C(=O)N6CCC[C@@H]6C(N)=O)c5)C[C@]4(C)[C@@]3(F)[C@@H](O)C[C@@]21C` [Example 42, (1R,2R,3aS,3bS, 10aS,10bR,11S,12aS)-7-(3-{[(2R)-2-carbamoyl-pyrrolidin-1-yl]carbonyl}phenyl)-10b-fluoro-1-{(fluoromethyl)sulfanyl] carbonyl}-11-hydroxy-2,10a,12a-trimethyl-1,2,3,3a,3b,4,5,7,10, 10a,10b,11,12,12a-tetradecahydrocyclo-penta[5,6]naphtho [1,2-f]indazol-1-yl propanoate]: 4.4 nM; for `CCC(=O)O[C@]1(C(=O)SCF)[C@H](C)C[C@H]2[C@@H]3CCC4=Cc5c(cnn5-c5cccc(C(=O)NCc6cccnc6)c5)C[C@]4(C)[C@@]3(F)[C@@H](O)C[C@@]21C` [Example 43, (1R,2R,3aS,3bS, 10aS,10bR,11S,12aS)-10b-fluoro-1-{[(fluoromethyl)sulfanyl]carbonyl}-11-hydroxy-2,10a,12a-trimethyl-7-{3-[(pyridin-3-ylmethyl)carbamoyl]phenyl}-1,2,3,3a,3b,4,5,7,10, 10a,10b,11,12,12a-tetradecahydrocyclo-penta[5,6]naphtho [1,2-f]indazol-1-yl propanoate]: 1.9 nM.

On to `CCC(=O)O[C@]1(C(=O)SCF)CC[C@H]2[C@@H]3CCC4=Cc5c(cnn5-c5cccc(C(=O)NCC(N)=O)c5)C[C@]4(C)[C@@]3(F)[C@@H](O)C[C@@]21C` [Example 44, (1R,3aS,3bS,10aS, 10bR,11S,12aS)-7-{3-[(2-amino-2-oxoethyl)carbamoyl]phenyl}-10b-fluoro-1-{[(fluoromethyl)sulfanyl]carbonyl}-11-hydroxy-10a,12a-dimethyl-1,2,3,3a,3b,4,5,7,10, 10a,10b,11,12,12a-tetradecahydrocyclo-penta[5,6]naphtho [1,2-f]indazol-1-yl propanoate], for which the IC50 was 2.2 nM. The same measure for `COCC(=O)O[C@]1(C(=O)SCF)[C@H](C)C[C@H]2[C@@H]3CCC4=Cc5c(cnn5-c5cccc(C(=O)NCC(N)=O)c5)C[C@]4(C)[C@@]3(F)[C@@H](O)C[C@@]21C` [Example 45, (1R,2R,3aS,3bS, 10aS,10bR,11S,12aS)-7-{3-[(2-amino-2-oxoethyl)carbamoyl]phenyl}-10b-fluoro-1-{[(fluoromethyl)sulfanyl]carbonyl}-11-hydroxy-2,10a,12a-trimethyl-1,2,3,3a,3b,4,5,7,10, 10a,10b,11,12,12a-tetradecahydrocyclo-penta[5,6]naphtho [1,2-f]indazol-1-yl methoxyacetate]: 5.3 nM; for `COCC(=O)O[C@]1(C(=O)SCF)[C@H](C)C[C@H]2[C@@H]3CCC4=Cc5c(cnn5-c5cccc(C(=O)NCc6cccnc6)c5)C[C@]4(C)[C@@]3(F)[C@@H](O)C[C@@]21C` [Example 46, (1R,2R,3aS,3bS, 10aS,10bR,11S,12aS)-10b-fluoro-1-{[(fluoromethyl)sulfanyl]carbonyl}-11-hydroxy-2,10a,12a-trimethyl-7-{3-[(pyridin-3-ylmethyl)carbamoyl]phenyl}-1,2,3,3a,3b,4,5,7,10, 10a,10b,11,12,12a-tetradecahydrocyclo-penta[5,6]naphtho [1,2-f]indazol-1-yl methoxyacetate]: 3.3 nM; for `COCC(=O)O[C@]1(C(=O)SCF)[C@H](C)C[C@H]2[C@@H]3CCC4=Cc5c(cnn5-c5cccc(C(=O)N6CCC[C@@H]6C(N)=O)c5)C[C@]4(C)[C@@]3(F)[C@@H](O)C[C@@]21C` [Example 47, (1R,2R,3aS,3bS, 10aS,10bR,11S,12aS)-7-(3-{[(2R)-2-carbamoyl-pyrrolidin-1-yl]carbonyl}phenyl)-10b-fluoro-1-{[(fluoromethyl)sulfanyl]carbonyl}-11-hydroxy-2,10a,12a-trimethyl-1,2,3,3a,3b,4,5,7,10, 10a,10b,11,12,12a-tetradecahydrocyclo-penta[5,6]naphtho [1,2-f]indazol-1-yl methoxyacetate]: 7.5 nM.

Regarding `CCC(=O)O[C@]1(C(=O)SCCO)CC[C@H]2[C@@H]3CCC4=Cc5c(cnn5-c5cccc(C(=O)N6CCC[C@@H]6C(N)=O)c5)C[C@]4(C)[C@H]3[C@@H](O)C[C@@]21C` [Example 48, (1R,3aS,3bS,10aR, 10bS,11S,12aS)-7-(3-{[(2R)-2-carbamoyl-pyrrolidin-1-yl]carbonyl}phenyl)-11-hydroxy-1-{[(2-hydroxyethyl)sulfanyl]carbonyl}-10a,12a-dimethyl-1,2,3,3a,3b,4,5,7,10, 10a,10b,11,12,12a-tetradecahydrocyclo-penta[5,6]naphtho [1,2-f]indazol-1-yl propanoate], the IC50 was found to be 6.3 nM. The same measure for `C[C@]12Cc3cnn(-c4cccc(C(=O)N5CCC[C@@H]5C(N)=O)c4)c3C=C1CC[C@@H]1[C@@H]2[C@@H](O)C[C@@]2(C)[C@H]1CC[C@]2(OC(=O)c1cocn1)C(=O)SCC#N` [Example 49, (1R,3aS,3bS,10aR, 10bS,11S,12aS)-7-(3-{[(2R)-2-carbamoyl-pyrrolidin-1-yl]carbonyl}phenyl)-1-{[(cyanomethyl)sulfanyl]carbonyl}-11-hydroxy-10a,12a-dimethyl-1,2,3,3a,3b,4,5,7,10, 10a,10b,11,12,12a-tetradecahydrocyclo-penta[5,6]naphtho [1,2-f]indazol-1-yl 1,3-oxazole-4-carboxylate]: 12 nM. `C[C@]12Cc3cnn(-c4cccc(C(=O)N5CCC[C@@H]5C(N)=O)c4)c3C=C1CC[C@@H]1[C@@H]2[C@@H](O)C[C@@]2(C)[C@H]1CC[C@]2(OC(=O)c1cocn1)C(=O)SCF` [Example 50, (1R,3aS,3bS,10aR, 10bS,11S,12aS)-7-(3-{[(2R)-2-carbamoyl-pyrrolidin-1-yl]carbonyl}phenyl)-1-{[(fluoromethyl)sulfanyl]carbonyl}-11-hydroxy-10a,12a-dimethyl-1,2,3,3a,3b,4,5,7,10, 10a,10b,11,12,12a-tetradecahydrocyclo-penta[5,6]naphtho [1,2-f]indazol-1-yl 1,3-oxazole-4-carboxylate]: the IC50 is 8.2 nM.
